Test results: patent US6242462A, “Pharmacological agents” (Eli Lilly and Company, priority 2000, dated 2001)
Blank lines part the entries; values can stand above or below the compound they belong to.

Key:
[1] = test system: acutely isolated dorsal root ganglion neurons (DRG); assay: Patch-clamp electrophysiology, kainate induced current in acutely isolated dorsal root ganglion neurons (Table 2); assay type: cell-based; details: Rattus norvegicus, DRG neuron, based on % inhibition of 30 μM kainate induced current
Source text: (§1) GluR5 receptor antagonists may be identified by radiolabelled ligand binding studies at the cloned and expressed human GluR5 receptor (Korczak et al., 1994, Recept. Channels 3; 41-49), by whole cell voltage clamp electro-physiological recordings of functional activity at the human GluR5 receptor (Korczak et al., 1994, Recept. Channels 3; 41-49) and by whole cell voltage clamp electro-physiological recordings of currents in acutely isolated rat dorsal root ganglion neurons (Bleakman et al., 1996, Mol. Pharmacol. 49; 581-585).
(§2) Functional studies were carried out on HEK293 cells stably transfected with human GluR receptors and on acutely isolated dorsal root ganglion neurons (DRG) using patch-clamp technology (Bleakman et al., 1996, Mol. Pharmacol., 49, 581-585). IC50 values (μM) for test Compound A were estimated for GluR1-4 vs 100 μM AMPA and GluR5 and GluR6 vs 100 μM KA with the following results:
*Based on % inhibition of 30 μM kainate induced current.

human GluR6 [2] = molecular target: T1, human GluR6 (Homo sapiens, UniProt Q13002); assay: Patch-clamp electrophysiology, HEK293 cells stably transfected with human GluR6, vs 100 μM KA (Table 2); assay type: cell-based
T1 construct: expressed in transfected cells; host or cells: HEK293
Source text: (§3) The selectivity of compounds acting at GluR5 receptors may be determined by measurement of activity at other AMPA and kainate receptors including receptor-ligand binding studies and whole-cell voltage clamp electro-physiological recordings of functional activity at human GluR1, GluR2, GluR3 and GluR4 receptors (Fletcher et al., 1995, Recept. Channels 3; 21-31), receptor-ligand binding studies and whole-cell voltage clamp electrophysiological recordings of functional activity at human GluR6 receptors (Hoo et al., Recept. Channels 2; 327-338) and whole-cell voltage clamp electrophysiological recordings of functional activity at AMPA receptors in acutely isolated cerebellar Purkinje neurons (Bleakman et al., 1996, Mol. Pharmacol. 49; 581-585) and other tissues expressing AMPA receptors (Fletcher and Lodge, 1996, Phannacol. Ther. 70; 65-89).
as §2, with “results: […]” for “results:”

human GluR4 [3] = molecular target: T2, human GluR4 (Homo sapiens, UniProt P48058); assay: Patch-clamp electrophysiology, HEK293 cells stably transfected with human GluR4, vs 100 μM AMPA (Table 2); assay type: cell-based
T2 construct: expressed in transfected cells; host or cells: HEK293
Source text: as §3
as §2, with “results: […]” for “results:”

human GluR5 [4] = molecular target: T3, human GluR5 (Homo sapiens, UniProt P39086); assay: Selectivity at GluR5 over other ionotropic glutamate receptors (binding and electrophysiology); details: GluR5 vs other ionotropic glutamate receptors
Target sequence in this assay (P39086 31-918): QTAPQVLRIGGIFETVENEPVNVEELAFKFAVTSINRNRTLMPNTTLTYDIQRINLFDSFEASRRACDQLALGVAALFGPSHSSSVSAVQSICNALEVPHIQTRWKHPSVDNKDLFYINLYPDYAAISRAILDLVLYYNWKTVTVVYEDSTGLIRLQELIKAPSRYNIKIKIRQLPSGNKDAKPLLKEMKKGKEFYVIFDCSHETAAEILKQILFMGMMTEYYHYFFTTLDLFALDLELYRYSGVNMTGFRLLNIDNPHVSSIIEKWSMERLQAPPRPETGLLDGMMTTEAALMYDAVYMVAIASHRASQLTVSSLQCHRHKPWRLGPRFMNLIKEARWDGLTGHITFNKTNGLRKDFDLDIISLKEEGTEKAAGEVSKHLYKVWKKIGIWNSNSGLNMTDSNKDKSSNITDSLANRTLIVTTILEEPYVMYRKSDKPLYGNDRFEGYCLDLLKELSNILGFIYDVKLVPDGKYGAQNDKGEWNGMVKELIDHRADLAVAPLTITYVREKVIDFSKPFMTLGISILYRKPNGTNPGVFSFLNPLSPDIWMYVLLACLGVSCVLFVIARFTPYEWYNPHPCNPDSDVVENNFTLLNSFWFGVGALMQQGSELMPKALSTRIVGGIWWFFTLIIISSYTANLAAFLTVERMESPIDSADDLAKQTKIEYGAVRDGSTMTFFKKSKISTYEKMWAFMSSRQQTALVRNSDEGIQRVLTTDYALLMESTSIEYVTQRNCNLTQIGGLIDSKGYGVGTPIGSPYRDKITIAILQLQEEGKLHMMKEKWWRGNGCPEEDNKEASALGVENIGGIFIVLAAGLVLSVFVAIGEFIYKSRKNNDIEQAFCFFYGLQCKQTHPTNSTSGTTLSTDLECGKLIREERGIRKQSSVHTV

pain = assay: Animal models of pain; details: in vivo
tail flick response [5] = assay: Tail Flick Test in cynomolgous primates; assay type: in vivo; details: oral, 0.03, 0.1, 0.3 and 3 mg/kg
Procedure: (§4) This well known test measures the effect of a test compound on the time taken for an animal to flick its tail out of a focused beam of light. In the test, a beam of light from a lamp is focused on a surface, and the lamp is then switched off. Treated and untreated (control) animals are restrained, with their tails positioned at the focal point of the beam of light from the lamp. The lamp is then switched on, and the time taken for the animal's tail to respond by moving is recorded.

human GluR5 [6] = molecular target: T3, human GluR5; assay: Binding: displacement of 3H kainate on GluR5-expressing HEK293 cells (Table 1); set-up: expressed in transfected cells; host or cells: HEK293
Source text: (§5) Cell lines (HEK293 cells) stably transfected with human GluR5 receptors were employed. Displacement of 3H AMPA by increasing concentrations of test compound was used on GluR1-4-expressing cells and 3H kainate (KA) on GluR5 and expressing cells.
Target sequence in this assay (P39086 31-905 isoform P39086-2 limits assumed): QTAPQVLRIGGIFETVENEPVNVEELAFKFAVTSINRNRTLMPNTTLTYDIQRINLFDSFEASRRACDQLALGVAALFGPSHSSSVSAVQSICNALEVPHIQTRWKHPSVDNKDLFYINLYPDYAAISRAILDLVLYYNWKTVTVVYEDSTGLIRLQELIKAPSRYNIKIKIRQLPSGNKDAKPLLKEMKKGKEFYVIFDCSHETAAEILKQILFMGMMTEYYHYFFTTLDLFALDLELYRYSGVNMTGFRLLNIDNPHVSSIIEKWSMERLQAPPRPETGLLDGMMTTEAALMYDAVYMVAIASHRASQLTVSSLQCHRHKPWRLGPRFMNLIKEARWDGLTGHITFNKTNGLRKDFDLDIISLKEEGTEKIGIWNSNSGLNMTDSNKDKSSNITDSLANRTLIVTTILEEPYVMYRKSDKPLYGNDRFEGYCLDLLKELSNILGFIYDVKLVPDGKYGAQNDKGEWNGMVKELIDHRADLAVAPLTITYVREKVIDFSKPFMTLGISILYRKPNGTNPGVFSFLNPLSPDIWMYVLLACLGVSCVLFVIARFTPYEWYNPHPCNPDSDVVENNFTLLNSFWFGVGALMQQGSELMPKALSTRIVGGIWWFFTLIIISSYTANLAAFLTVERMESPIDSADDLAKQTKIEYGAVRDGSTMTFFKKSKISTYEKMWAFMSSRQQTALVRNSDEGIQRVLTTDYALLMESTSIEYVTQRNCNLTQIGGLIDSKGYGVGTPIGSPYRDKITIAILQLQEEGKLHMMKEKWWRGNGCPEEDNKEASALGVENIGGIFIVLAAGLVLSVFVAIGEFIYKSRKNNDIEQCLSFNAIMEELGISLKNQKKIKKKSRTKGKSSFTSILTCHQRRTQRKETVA

[7] = test system: acetic acid induced writhing; assay: Acetic acid induced mouse writhing test; assay type: in vivo, male CD-1 mice; details: mice; 1, 3, 10 and 30 mg/kg; 0.5% acetic acid i.p.
Procedure: 3) Acetic acid induced mouse writhing test.
This test measures the ability of a test compound to reduce the amount of writhing induced by intraperitoneal injection of acetic acid in mice.
Doses of test compound or control are administered to male CD-1 mice. Each animal is then administered 0.5% acetic acid in a volume of […] intraperitoneally. The animals are then placed in individual plexiglas observation chambers and the total number of writhes (flattening of the abdominal wall and asymmetric stretching and extending of the body and hindlimbs) recorded between 5 and 10 minutes after acetic acid administration.

tail flick response [8] = assay: Tail Flick Test in mice; assay type: in vivo; details: subcutaneous, 3, 10, and 30 mg/kg
Procedure: as §4

human GluR1 [9] = molecular target: T4, human GluR1 (Homo sapiens, UniProt P42261); assay: Binding: displacement of 3H AMPA on GluR1-expressing cells (Table 1)
T4 construct: expressed in transfected cells; host or cells: HEK293
Source text: as §3
(§6) Cell lines (HEK293 cells) stably transfected with human GluR5 receptors were employed. Displacement of 3H AMPA by increasing concentrations of test compound was used on GluR1-4-expressing cells and 3H kainate (KA) on GluR5 and expressing cells. Estimated activity (Ki) in nM was as follows.

human GluR4 [10] = molecular target: T2, human GluR4; assay: Binding: displacement of 3H AMPA on GluR4-expressing cells (Table 1)
Source text: as §3, §6

human GluR2 [11] = molecular target: T5, human GluR2 (Homo sapiens, UniProt P42262); assay: Binding: displacement of 3H AMPA on GluR2-expressing cells (Table 1)
T5 construct: expressed in transfected cells; host or cells: HEK293
Source text: as §5

human GluR3 [12] = molecular target: T6, human GluR3 (Homo sapiens, UniProt P42263); assay: Patch-clamp electrophysiology, HEK293 cells stably transfected with human GluR3, vs 100 μM AMPA (Table 2); assay type: cell-based
T6 construct: expressed in transfected cells; host or cells: HEK293
Source text: as §3
as §2, with “results: […]” for “results:”

human GluR3 [13] = molecular target: T6, human GluR3; assay: Binding: displacement of 3H AMPA on GluR3-expressing cells (Table 1)
Source text: as §3, §6

human GluR6 [14] = molecular target: T1, human GluR6; assay: Binding: displacement of radioligand (3H kainate) on GluR6 (Table 1); details: read-out: % displ, GluR6
Source text: as §3, §6

human GluR1 [15] = molecular target: T4, human GluR1; assay: Patch-clamp electrophysiology, HEK293 cells stably transfected with human GluR1, vs 100 μM AMPA (Table 2); assay type: cell-based
Source text: as §3
as §2, with “results: […]” for “results:”

human GluR5 [16] = molecular target: T3, human GluR5; assay: Patch-clamp electrophysiology, HEK293 cells stably transfected with human GluR5, vs 100 μM KA (Table 2); assay type: cell-based; set-up: expressed in transfected cells; host or cells: HEK293
Source text: as §1
as §2, with “results: […]” for “results:”
Target sequence in this assay (P39086 31-905 isoform P39086-2 limits assumed): as above

human GluR2 [17] = molecular target: T5, human GluR2; assay: Patch-clamp electrophysiology, HEK293 cells stably transfected with human GluR2, vs 100 μM AMPA (Table 2); assay type: cell-based
Source text: as §3
as §2, with “results: […]” for “results:”

T2 sequence (P48058 21-902): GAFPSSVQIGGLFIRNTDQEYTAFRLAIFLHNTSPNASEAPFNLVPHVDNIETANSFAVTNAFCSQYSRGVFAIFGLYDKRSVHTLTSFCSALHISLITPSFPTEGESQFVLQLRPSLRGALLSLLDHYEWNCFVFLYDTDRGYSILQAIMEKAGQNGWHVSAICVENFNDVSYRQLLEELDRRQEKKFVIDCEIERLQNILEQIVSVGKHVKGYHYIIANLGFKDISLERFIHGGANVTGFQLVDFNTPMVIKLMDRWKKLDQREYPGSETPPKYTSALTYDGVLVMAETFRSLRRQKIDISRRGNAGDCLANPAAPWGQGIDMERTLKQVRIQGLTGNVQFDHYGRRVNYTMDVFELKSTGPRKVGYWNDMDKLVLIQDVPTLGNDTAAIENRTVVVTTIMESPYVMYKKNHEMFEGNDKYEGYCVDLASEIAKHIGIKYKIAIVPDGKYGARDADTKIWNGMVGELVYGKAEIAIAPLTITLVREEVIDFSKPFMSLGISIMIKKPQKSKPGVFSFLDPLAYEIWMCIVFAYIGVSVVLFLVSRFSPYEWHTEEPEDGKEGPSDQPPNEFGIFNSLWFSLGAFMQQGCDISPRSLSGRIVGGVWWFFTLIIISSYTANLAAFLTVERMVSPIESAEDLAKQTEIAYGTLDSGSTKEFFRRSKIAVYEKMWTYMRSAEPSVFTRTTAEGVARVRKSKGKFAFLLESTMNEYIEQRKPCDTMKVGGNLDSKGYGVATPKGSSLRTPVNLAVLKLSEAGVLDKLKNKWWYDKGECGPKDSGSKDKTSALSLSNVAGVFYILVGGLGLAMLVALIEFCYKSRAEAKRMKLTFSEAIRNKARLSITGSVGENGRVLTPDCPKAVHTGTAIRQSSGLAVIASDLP
T4 sequence (P42261 19-906): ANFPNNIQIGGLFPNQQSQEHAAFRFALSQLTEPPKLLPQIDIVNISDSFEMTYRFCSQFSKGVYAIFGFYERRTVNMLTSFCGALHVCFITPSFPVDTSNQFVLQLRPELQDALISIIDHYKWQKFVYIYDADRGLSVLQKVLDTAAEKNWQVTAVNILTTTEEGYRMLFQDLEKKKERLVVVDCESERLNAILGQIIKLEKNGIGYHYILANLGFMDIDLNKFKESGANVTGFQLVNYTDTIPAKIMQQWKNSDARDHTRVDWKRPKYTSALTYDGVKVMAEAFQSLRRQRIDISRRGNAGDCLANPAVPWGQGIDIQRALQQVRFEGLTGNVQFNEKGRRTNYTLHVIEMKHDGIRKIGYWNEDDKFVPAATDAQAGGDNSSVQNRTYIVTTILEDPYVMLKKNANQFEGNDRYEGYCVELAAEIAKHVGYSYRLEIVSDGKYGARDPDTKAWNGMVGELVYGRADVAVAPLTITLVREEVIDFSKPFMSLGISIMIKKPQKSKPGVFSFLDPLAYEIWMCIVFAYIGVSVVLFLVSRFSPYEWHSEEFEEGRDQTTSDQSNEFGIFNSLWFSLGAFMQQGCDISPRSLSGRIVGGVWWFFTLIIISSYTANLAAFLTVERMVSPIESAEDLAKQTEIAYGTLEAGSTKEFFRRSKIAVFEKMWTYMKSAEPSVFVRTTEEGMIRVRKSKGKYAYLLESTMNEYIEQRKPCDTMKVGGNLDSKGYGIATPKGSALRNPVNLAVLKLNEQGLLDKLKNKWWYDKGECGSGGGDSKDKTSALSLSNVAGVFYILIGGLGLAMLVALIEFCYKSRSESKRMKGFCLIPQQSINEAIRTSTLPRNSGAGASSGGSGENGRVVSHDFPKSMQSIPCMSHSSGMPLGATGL
T1 sequence (Q13002 32-908): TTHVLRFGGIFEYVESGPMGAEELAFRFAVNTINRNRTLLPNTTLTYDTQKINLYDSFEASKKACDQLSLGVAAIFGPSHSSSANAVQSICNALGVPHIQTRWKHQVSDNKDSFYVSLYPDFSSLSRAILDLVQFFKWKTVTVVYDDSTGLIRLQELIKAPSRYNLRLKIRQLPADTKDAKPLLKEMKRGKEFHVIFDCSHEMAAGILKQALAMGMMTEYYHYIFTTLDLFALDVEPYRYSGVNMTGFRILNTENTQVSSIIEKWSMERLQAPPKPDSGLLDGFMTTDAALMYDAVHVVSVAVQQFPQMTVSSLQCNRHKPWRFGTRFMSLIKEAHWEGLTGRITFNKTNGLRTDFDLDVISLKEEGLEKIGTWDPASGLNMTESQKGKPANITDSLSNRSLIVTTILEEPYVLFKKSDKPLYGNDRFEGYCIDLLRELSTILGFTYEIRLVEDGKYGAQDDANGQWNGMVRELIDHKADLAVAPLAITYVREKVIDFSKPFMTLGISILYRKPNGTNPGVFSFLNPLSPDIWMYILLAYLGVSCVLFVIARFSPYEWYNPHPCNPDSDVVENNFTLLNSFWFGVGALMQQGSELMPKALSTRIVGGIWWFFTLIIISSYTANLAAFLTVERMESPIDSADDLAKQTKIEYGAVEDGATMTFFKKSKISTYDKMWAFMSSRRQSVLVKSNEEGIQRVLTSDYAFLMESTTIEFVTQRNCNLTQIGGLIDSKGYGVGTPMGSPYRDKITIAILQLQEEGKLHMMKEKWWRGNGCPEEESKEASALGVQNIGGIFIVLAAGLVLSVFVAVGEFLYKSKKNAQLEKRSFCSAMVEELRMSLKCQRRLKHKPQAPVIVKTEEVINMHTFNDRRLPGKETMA

IC50 (human GluR6 [2]): > 100 µM
IC50 (human GluR4 [3]): > 100 µM
SMILES: O=C(O)c1ccc(C[C@H]2CC[C@H]3CN[C@H](C(=O)O)C[C@H]3C2)cc1 [D, 3S,4aR,6S,8aR-6-(((4-carboxy)phenyl)methyl)-1,2,3,4,4a,5,6,7,8,8a-decahydroisoquinoline-3-carboxylic acid]
IC50 [1]: 0.98 µM

selective GluR5 receptor antagonism (human GluR5 [4]): selective GluR5 receptor antagonists
selective GluR5 receptor antagonism (human GluR5 [4]; listed as (3S,4aR,6S,8aR)-6-[(1(2)H-tetrazol-5-yl)methoxymethyl]decahydroisoquinoline-3-ca): selective GluR5 antagonist
selective GluR5 receptor antagonism (human GluR5 [4]; listed as Example 1): selective GluR5 antagonist
Estimated activity (Ki), GluR5 (human GluR5 [6]): 5.823 µM
SMILES: O=C(O)[C@@H]1C[C@H]2C[C@@H](COCc3nn[nH]n3)CC[C@H]2CN1 [B, 3S,4aR,6S,8aR-6-((((1H-Tetrazole-5-yl)methyl)oxy)methyl)-1,2,3,4,4a,5,6,7,8,8a-decahydroisoquinoline-3-carboxylic Acid]
effectiveness in animal models of pain (pain): effective in animal models of pain
response time (tail flick) (tail flick response [5]): dose dependent increase in response time
writhing [7]: dose dependent reduction in writhing
response time (tail flick) (tail flick response [8]): dose dependent increase in response time

inhibition at 1000 µM (human GluR1 [9]; at 1 mM, 3H AMPA): 21%
inhibition at 1000 µM (human GluR4 [10]; at 1 mM, 3H AMPA): 23%
SMILES: O=C(O)c1ccc(C[C@H]2CC[C@H]3CN[C@H](C(=O)O)C[C@H]3C2)cc1 (relative stereo) [C, 3SR, 4aRS, 6SR, 8aRS-6-(((4-carboxy)phenyl)methyl)-1,2,3-4,4a,5,6,7,8,8a-decahydroisoquinoline-3-carboxylic acid]

Estimated activity (Ki), GluR1 (human GluR1 [9]; displacement of 3H AMPA): 150.686 µM
selective GluR5 receptor antagonism (human GluR5 [4]): selective GluR5 receptor antagonists
Estimated activity (Ki), GluR2 (human GluR2 [11]): 35.337 µM
IC50 (human GluR3 [12]): > 100 µM
Estimated activity (Ki), GluR3 (human GluR3 [13]): 47.793 µM
inhibition at 100 µM (human GluR6 [14]): 6%
IC50 (human GluR6 [2]): > 100 µM
IC50 (human GluR1 [15]): > 100 µM
IC50 (human GluR5 [16]): 3.9 ± 0.5 µM
Estimated activity (Ki), GluR4 (human GluR4 [10]; displacement of 3H AMPA): 31.606 µM
IC50 (human GluR4 [3]): > 100 µM
Estimated activity (Ki), GluR5 (human GluR5 [6]): 3.061 µM
IC50 (human GluR2 [17]): > 100 µM
SMILES: O=C(O)[C@@H]1C[C@H]2C[C@@H](COCc3nn[nH]n3)CC[C@H]2CN1 (relative stereo) [Compound A, 3SR, 4aRS, 6SR, 8aRS-6-[(1(2)H-tetrazol-5-yl)methoxy-methyl]decahydroisoquinoline-3-carboxylic acid]
IC50 [1]: 0.6 µM
